pIC50: −log10 of the molar value.
Columns and labels:
cruzain = cruzain (Trypanosoma cruzi, UniProt P25779); assay: biochemical; assay type: biochemical; details: for % inhibition (DMSO) Cruzain: concentration not given; for activity against cruzain (in words): summary statement
rhodesain = rhodesain (Trypanosoma brucei rhodesiense, UniProt Q95PM0); assay: Enzymatic inhibition of recombinant rhodesain, fluorogenic Z-Phe-Arg-AMC substrate; assay type: biochemical, T. Brucei; details: for % inhibition (DMSO) Rhodesain: concentration not given; for activity against rhodesain (in words): summary statement
Chain of rhodesain (Q95PM0 entry or part of it): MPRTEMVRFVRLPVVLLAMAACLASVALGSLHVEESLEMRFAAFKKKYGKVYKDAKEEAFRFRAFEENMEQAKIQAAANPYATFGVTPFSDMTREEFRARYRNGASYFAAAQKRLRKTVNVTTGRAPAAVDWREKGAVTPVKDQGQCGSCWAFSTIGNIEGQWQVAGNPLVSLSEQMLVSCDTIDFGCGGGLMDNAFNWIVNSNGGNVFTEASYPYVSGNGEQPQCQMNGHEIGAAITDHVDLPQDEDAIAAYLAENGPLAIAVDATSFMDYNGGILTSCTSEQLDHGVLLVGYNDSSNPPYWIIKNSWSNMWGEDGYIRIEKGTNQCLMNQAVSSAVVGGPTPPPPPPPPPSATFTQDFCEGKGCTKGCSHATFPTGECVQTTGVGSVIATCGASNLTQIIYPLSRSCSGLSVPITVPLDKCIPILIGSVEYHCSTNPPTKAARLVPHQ
Experimental: (§1) Inhibition of cysteine-proteases cruzain, rhodesain, cathepsin B (Tb CatB) and falcipain (FP2) was assessed by quantification of the resulting fluorescence emission of the proteolytic breakdown of synthetic compound Z-Phe-Arg-AMC (Bachem). Inhibitors Ia or Ib were used at concentrations ranging form 10 nM to 10.000 nM (from 500 nM to 10000 nM for Tb CatB); thus, serial dilutions in DMSO were prepared with the minimal concentration of inhibitor Ia or Ib used for calculations and at least 10 times higher than that of the enzyme. These experiments were performed by distributing inhibitor Ia or Ib in 96 wells, fluorescence was recorded on a Flex Station fluorimeter (Molecular Devices), 355 nm excitation and 460 nm emission at 25° C., distributing 100 μl of substrate using a multichannel pipette at a similar volume of the inhibitor enzyme preincubated at 25° C. for 5 minutes. In each series of experiments, the enzyme with DMSO and the enzyme in the presence of the known irreversible inhibitor K11777 (N methyl piperazine-Phe-HPhe-(CH═CHSO2 Ph)), Arris Pharmaceuticals Inc., South San Francisco, Calif.) were used as controls.
(§2) Enzyme inhibition data were similarly determined: recombinant cruzain at 4 nM with 5 μM of Z-Phe-Arg-AMC (Km=1 μM) in buffer A (100 mM of sodium acetate, pH 5.5 with 5 mM of DTT and 0.001% Triton-X 100 (Sigma)); recombinant rhodesain at 4 nM of enzyme and 5 μM Z-Phe-Arg-AMC (Km=1 μM) in buffer A; recombinant Tb CatB at 40 nM of enzyme and 5 μM of Z-Phe-Arg-AMC (Km=60 μM) in buffer A and recombinant FP2 at 4 nM with 5 μM of Z-Phe-Arg-AMC (Km=1 μM) in buffer A. IC50 values were determined by direct reading of the semi-log plot of reaction speed versus inhibitor concentration.

cathepsin B (Tb CatB) = cathepsin B (Tb CatB) (Trypanosoma brucei, UniProt Q6R7Z5); assay: Enzymatic inhibition of recombinant Tb CatB, fluorogenic Z-Phe-Arg-AMC substrate; assay type: biochemical; details: for % inhibition (DMSO) TbCat B: concentration not given; for activity against cathepsin B (in words): summary statement, said to indicate selectivity
Chain of cathepsin B (Tb CatB) (Q6R7Z5 entry or part of it): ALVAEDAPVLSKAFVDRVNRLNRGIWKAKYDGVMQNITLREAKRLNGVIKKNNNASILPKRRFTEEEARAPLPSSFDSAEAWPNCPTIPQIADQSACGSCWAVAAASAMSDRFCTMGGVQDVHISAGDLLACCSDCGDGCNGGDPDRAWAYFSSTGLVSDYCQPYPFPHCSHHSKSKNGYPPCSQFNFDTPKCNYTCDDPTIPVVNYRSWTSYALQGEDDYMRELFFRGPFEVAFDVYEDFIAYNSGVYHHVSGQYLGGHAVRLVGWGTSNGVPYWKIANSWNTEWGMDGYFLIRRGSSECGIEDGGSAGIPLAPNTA
Experimental: as §1, §2

falcipain (FP2) = falcipain (FP2) (Plasmodium falciparum, UniProt Q8I6U4); assay: Enzymatic inhibition of recombinant falcipain (FP2), fluorogenic Z-Phe-Arg-AMC substrate; assay type: biochemical
Chain of falcipain (FP2) (Q8I6U4 244-484): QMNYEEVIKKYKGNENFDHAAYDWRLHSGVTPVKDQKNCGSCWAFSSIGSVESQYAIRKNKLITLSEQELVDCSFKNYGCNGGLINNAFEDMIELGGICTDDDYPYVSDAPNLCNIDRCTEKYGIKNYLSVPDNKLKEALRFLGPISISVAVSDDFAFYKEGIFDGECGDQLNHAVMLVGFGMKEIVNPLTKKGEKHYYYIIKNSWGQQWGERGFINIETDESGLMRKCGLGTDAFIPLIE
Experimental: as §1, with “controls. […]” for “controls.”

[1] = tested on: Trypanosoma brucei brucei (Tbb); assay: Inhibition test on Trypanosoma brucei brucei by ATP-bioluminescence; assay type: cell-based; details: concentration not given
Experimental: Inhibition tests on Trypanosoma brucei brucei were performed by ATP-bioluminescence (Z. B. Mackey et al, Chem. Biol. Drug Des. 2006, 67, pp. 355-363).

Chain of cruzain (P25779 123-467): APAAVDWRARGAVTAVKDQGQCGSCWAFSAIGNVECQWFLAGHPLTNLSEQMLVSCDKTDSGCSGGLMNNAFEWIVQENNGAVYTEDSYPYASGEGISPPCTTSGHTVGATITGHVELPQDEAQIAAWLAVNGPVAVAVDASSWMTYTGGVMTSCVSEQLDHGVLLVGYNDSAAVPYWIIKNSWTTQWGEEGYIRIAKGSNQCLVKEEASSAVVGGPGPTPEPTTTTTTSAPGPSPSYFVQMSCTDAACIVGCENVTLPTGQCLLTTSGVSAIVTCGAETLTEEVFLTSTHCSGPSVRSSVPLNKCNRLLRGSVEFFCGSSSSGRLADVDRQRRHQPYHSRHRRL

Compound | pIC50 (cruzain) | % inhibition (DMSO) Cruzain (cruzain) [%] | activity against cruzain (in words) (cruzain) | pIC50 (rhodesain) | % inhibition (DMSO) Rhodesain (rhodesain) [%] | activity against rhodesain (in words) (rhodesain) | pIC50 (cathepsin B (Tb CatB)) | % inhibition (DMSO) TbCat B (cathepsin B (Tb CatB)) [%] | activity against cathepsin B (in words) (cathepsin B (Tb CatB)) | pIC50 (falcipain (FP2)) | % inhibition (DMSO) Tbb [1] [%]
CCOC(=O)[C@@H]1O[C@H]1C(=O)[C@H](CCc1ccccc1)NC(=O)[C@H](Cc1ccccc1)NC(=O)OCc1ccccc1 [Compound Ib.1, Ethyl (2R,3R)-3-[(2S)-2-((2S)-2-benzyloxycarbonylamino-3-phenylpropionylamino)-4-phenylbutyryl]oxirane-2-carboxylate] | 7.30 | 55 | very active | 7.52 | 80 | very active | 6.40 | 47 | not against cathepsin B | 7.36 | −2
CCOC(=O)[C@H]1O[C@@H]1C(=O)[C@H](CCc1ccccc1)NC(=O)[C@H](Cc1ccccc1)NC(=O)OCc1ccccc1 [Compound Ia.1, Ethyl (2S,3S)-3-[(2S)-2-((2S)-2-benzyloxycarbonylamino-3-phenylpropionylamino)-4-phenylbutyryl]oxirane-2-carboxylate] | 7.70 | 93 | very active | 8.46 | 98 | very active | < 6.00 | 51 | not against cathepsin B | 7.15 | 42

From patent US20100190848A1, “Cysteine-protease inhibitors” (UNIVERSITAT JAUME I, priority 2007, published 2010)
